Key:
[1] = Cytotoxicity against human MT4 cells measured after 3 days by CytoTox-Glo assay; assay type: cell-based
[2] = tested on: Human immunodeficiency virus 1; experiment: Antiviral activity against HIV NL4-3 infected in human MT4 cells measured on day 3 post-infection by Nano-Glo luciferase assay; assay type: functional, organism-based; settings: Human immunodeficiency virus 1, NL4-3, MT4, 72 h
[3] = Selectivity index, ratio of CC50 for human MT4 cells to IC50 for HIV NL4-3 infected in human MT4 cells; assay type: toxicity, cell-based; settings: read-out: Ratio CC50/IC50

SMILES	CC50 at 72 h [1] [nM]	IC50 [2] [nM]	selectivity ratio [3]
CCCCCCCCCCCCCCCC(=O)O[C@H]1C(C)=C[C@]23C(=O)[C@@H](C=C(CO)[C@@H](O)[C@]12O)[C@H]1[C@@H](C[C@H]3C)C1(C)C	26300	4.1	6420
CCCCC/C=C/C=C/C(=O)O[C@@H]1C(COC(C)=O)=C[C@@H]2C(=O)[C@]3(C=C(C)[C@H](O)[C@@]13O)[C@H](C)C[C@@H]1[C@H]2C1(C)C	15200	1.2	13000
CCCCCCCCCCCCCC(=O)O[C@@H]1C(CO)=C[C@@H]2C(=O)[C@]3(C=C(C)[C@H](O)[C@@]13O)[C@H](C)C[C@@H]1[C@H]2C1(C)C	> 1800	3.9	> 454
CCCCCC/C=C/CCCCCCCC(=O)O[C@H]1C(C)=C[C@]23C(=O)[C@@H](C=C(CO)[C@@H](O)[C@@]12O)[C@H]1[C@@H](C[C@H]3C)C1(C)C	13900	1.1	13100
CC1=C[C@]23C(=O)[C@@H](C=C(CO)[C@@H](O)[C@]2(O)[C@H]1O)[C@H]1[C@@H](C[C@H]3C)C1(C)C [INGENOL]	> 10000	> 10	–
CCCCCCCCCC(=O)OCC1=C[C@@H]2C(=O)[C@]3(C=C(C)[C@H](O)[C@@]3(O)[C@@H]1O)[C@H](C)C[C@@H]1[C@H]2C1(C)C	48800	8.2	5980
CCCCCCCCCCCCCC(=O)O[C@H]1C(C)=C[C@]23C(=O)[C@@H](C=C(CO)[C@@H](O)[C@]12O)[C@H]1[C@@H](C[C@H]3C)C1(C)C	26300	2.3	11300
CCCCC/C=C\C=C\C(=O)O[C@H]1C(C)=C[C@]23C(=O)[C@@H](C=C(COC(C)=O)[C@@H](O)[C@]12O)[C@H]1[C@@H](C[C@H]3C)C1(C)C	> 900	1.8	> 526
CCCCCC/C=C\CCCCCCCC(=O)O[C@H]1C(C)=C[C@]23C(=O)[C@@H](C=C(CO)[C@@H](O)[C@@]12O)[C@H]1[C@@H](C[C@H]3C)C1(C)C	> 1700	2.7	> 625
CCCCC/C=C/C=C/C(=O)O[C@H]1C(C)=C[C@]23C(=O)[C@@H](C=C(COC(C)=O)[C@@H](O)[C@]12O)[C@H]1[C@@H](C[C@H]3C)C1(C)C	> 900	5	> 185
CCCCCCCCCCCCCC(=O)OCC1=C[C@@H]2C(=O)[C@]3(C=C(C)[C@H](O)[C@@]3(O)[C@@H]1O)[C@H](C)C[C@@H]1[C@H]2C1(C)C	32400	8.6	3770
CCCCC/C=C\C=C\C(=O)O[C@@H]1C(COC(C)=O)=C[C@@H]2C(=O)[C@]3(C=C(C)[C@H](O)[C@@]13O)[C@H](C)C[C@@H]1[C@H]2C1(C)C	14300	0.7	20300
CCCC\C=C/C=C/C=C/C(=O)O[C@H]1C(C)=C[C@]23C(=O)[C@@H](C=C(COC(C)=O)[C@@H](O)[C@]12O)[C@H]1[C@@H](C[C@H]3C)C1(C)C	> 900	8.4	> 111
CCCC\C=C/C=C\C=C\C(=O)O[C@H]1C(C)=C[C@]23C(=O)[C@@H](C=C(COC(C)=O)[C@@H](O)[C@]12O)[C@H]1[C@@H](C[C@H]3C)C1(C)C	> 900	9.7	> 96.2
CCCCCCCCCCCCCCCC(=O)OCC1=C[C@@H]2C(=O)[C@]3(C=C(C)[C@H](O)[C@@]3(O)[C@@H]1O)[C@H](C)C[C@@H]1[C@H]2C1(C)C	> 1700	1.1	> 1540
Cc1cn([C@H]2C[C@H](N=[N+]=[N-])[C@@H](CO)O2)c(=O)[nH]c1=O [ZIDOVUDINE]	> 370	18.7	> 20
CCCCCCCCCCCCCCCC(=O)O[C@@H]1C(CO)=C[C@@H]2C(=O)[C@]3(C=C(C)[C@H](O)[C@@]13O)[C@H](C)C[C@@H]1[C@H]2C1(C)C	> 1700	4.4	> 385

From ChEMBL document CHEMBL4339238, “Potent Anti-HIV Ingenane Diterpenoids from Euphorbia ebracteolata” (J Nat Prod, 2019)
